The values below are quoted from earlier work in patent US7799540B2, “Method of producing lycopene through the fermentation of selected strains of Blackeslea trispora, formulations and uses of the lycopene thus obtained” (Vitatene, S.A., priority 2001, dated 2010).

Molecules are shown by their SMILES.

The conditions of the data set: rats; Matos H.R. et al. (2001).

Turning to `CC(C)=CCC/C(C)=C/C=C/C(C)=C/C=C/C(C)=C/C=C/C=C(C)/C=C/C=C(C)/C=C/C=C(\C)CCC=C(C)C` [lycopene, Lycopene], the “effect on harmful effect of ferric nitriloacetate on DNA” value is “inhibits the harmful effect of ferric nitriloacetate on DNA” and the “effect on necrosis of the liver” value is recorded as “prevents necrosis of the liver”.
